This is an account of results in US20240352029A1, “CDK Inhibitors And Their Use As Pharmaceuticals” (Prelude Therapeutics Incorporated, priority 2023, published 2024).

The target of one assay is T1, CDK4/Cyclin D1 (Homo sapiens, UniProt P11802).
T1 construct: purchased ProQinase; host or cells: insect cell
The assay can be described thus: CDK4/CyclinD1 enzymatic activity assay (TR-FRET). It is filed as biochemical. The note with it: ATP 2 mM final, read-out: CDK4_D1 IC50. As to the method: CDK4/CyclinD1 Enzymatic Activity Assay
(§1) The inhibitory activity of compounds was evaluated in vitro using TR-FRET assay with white 384-well low volume microplate (Greiner Bio-One). CDK4/Cyclin D1 catalyzed phosphorylation of peptide in the presence and absence of compounds was measured and used in IC50 determination. Recombinant protein complex CDK4/Cyclin D1, expressed from insect cell, was purchased from ProQinase. Testing compounds were dissolved in DMSO at 1 mM and tested in 9-dose IC50 mode. The reaction mixture was prepared by mixing CDK4/CyclinD1 (1 nM final), ULight-4E-BP1 (100 nM final, Perkinelmer, TRF0128-D), and ATP (2 mM final) in assay buffer (20 mM of HEPES pH 7.4, 1 mM of EGTA, 0.05% BSA, 0.005% Tween 20, and 1 mM TCEP). The compound of interest in DMSO was added to each well in 3-fold serial dilution by dispenser (TECAN D300E) to make a 9.9 μL of reaction mixture. After 20 minutes preincubation at room temperature, 0.1 μL MgCl2 (10 mM final) was added to initiate the reaction. Following a 45 minutes incubation at 37° C., the reaction was stopped by addition of 2 μL of quenching buffer consisting of Lance detection buffer (Perkinelmer CR97-100C), LANCE Ultra Europium-anti-P-4E-BP1 (Perkinelmer, TRF0216-D), EDTA, and incubate at room temperature for additional 60 minutes in dark. The reaction signal was measured by Envision multimode plate reader (PerkinElmer, 2102-0010). IC50 values were determined by fitting the data to the standard 4 parameters with Hill Slope using GraphPad Prism software.

Another assay has as its target CDK2/Cyclin E2 (Homo sapiens, UniProt P24941). The assay can be described thus: CDK2/CyclinE2 enzymatic activity assay (TR-FRET). The class given is biochemical. The note with it: ATP 1 mM final, read-out: CDK2_E1 IC50. As to the method:
CDK2/CyclinE2 Enzymatic Activity Assay
as §1, with “Bio-One). CDK2/Cyclin E2” for “Bio-One). CDK4/Cyclin D1”, “complex CDK2/Cyclin E2,” for “complex CDK4/Cyclin D1,”, “mixing CDK2/CyclinE2” for “mixing CDK4/CyclinD1”, “ULight-4E-BP1 (50” for “ULight-4E-BP1 (100”, “ATP (1” for “ATP (2”

In another assay the test system is OVCAR3 p-RB. Briefly: pRB ICW assay in OVCAR3 cells. The class given is cell-based. The note with it: Homo sapiens, OVCAR-3, 2 hours incubation with compound. Here is the method:
pRB ICW Assay in OVCAR3 Cells
OVCAR3 cells were maintained in RPMI (Corning, Catalog #: 10-040-CV) supplemented with 10% v/v FBS (Gibco, Catalog #: 26140-079), 1% v/v Penicillin Streptomycin (Gibco, Catalog #15140-122.) OVCAR3 cells grown at log phase were trypsinized, counted, and resuspended in fresh medium to reach a final density of 6.7e4 cells/ml and 75 μL of culture were dispensed into a 384-well plate (Falcon, cat #353962) using Multidrop Combi dispenser (Thermo Scientific). The next day, compounds were dispensed as a 9-point, ½ log serial dilution using a Tecan digital dispenser (D300e), and cells were incubated with compound for 2 hours in a humidified incubator at 37° C. A reference compound at a final concentration of 10 μM was used as a control for maximum inhibition. Each compound was tested in duplicates in each experiment. At the end of the incubation, 25 μl of 16% paraformaldehyde (Electron Microscopy, cat #15710) was slowly added to each well and the plate was incubated at room temperature (RT) for 30 minutes to fix cells. Cells were then permeabilized by incubating with 50 μl/well of wash buffer (1×PBS with 0.1% Triton X-100) 5×5 minutes, followed by 1 hour blocking with 30 μl/well of Odyssey blocking buffer (Li—COR, cat #927-40000), all at RT. Anti-phosphor RB antibody (Cell signaling 8516S) was diluted 1:1000 in Odyssey blocking buffer and 20 μl was added to all wells and incubated overnight in 4° C. with gently rocking. The next day, cells were washed 5×5 min with 50 μl/well of wash buffer, followed with 1 hour incubation with secondary antibody and DRAQ5 diluted in Odyssey blocking buffer (1:500 dilution for secondary antibody and 1:2000 dilution for DRAQ5), 5×5 min washes, and one last wash with water. Plates were dried in 37° C. oven for 5 min and scanned using Li—COR Odyssey CLx imaging system to acquire intensities at 700 and 800 nm channels.

T1 sequence (P11802 whole entry): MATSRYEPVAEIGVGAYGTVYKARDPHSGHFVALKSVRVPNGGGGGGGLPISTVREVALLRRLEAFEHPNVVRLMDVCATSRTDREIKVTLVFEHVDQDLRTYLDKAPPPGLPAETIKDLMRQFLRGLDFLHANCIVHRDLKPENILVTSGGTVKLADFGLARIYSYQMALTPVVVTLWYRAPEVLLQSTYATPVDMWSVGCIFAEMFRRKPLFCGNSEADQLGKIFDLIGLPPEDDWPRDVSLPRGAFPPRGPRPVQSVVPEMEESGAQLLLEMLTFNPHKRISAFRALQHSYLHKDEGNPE
T1 sequence (P24385 whole entry partner): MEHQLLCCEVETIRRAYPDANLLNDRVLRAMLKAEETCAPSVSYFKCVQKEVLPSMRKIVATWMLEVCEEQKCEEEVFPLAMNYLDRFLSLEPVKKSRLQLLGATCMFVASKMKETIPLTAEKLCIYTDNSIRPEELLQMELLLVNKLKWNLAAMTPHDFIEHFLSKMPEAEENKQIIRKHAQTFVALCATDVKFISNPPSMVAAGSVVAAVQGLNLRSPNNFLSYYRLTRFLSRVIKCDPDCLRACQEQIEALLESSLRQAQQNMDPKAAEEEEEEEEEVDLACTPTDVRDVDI

For the molecule `CC1(C)NC(=O)c2cc(-c3nc(NC4CCN(S(C)(=O)=O)CC4)ncc3C(F)(F)F)sc21` [Example 12, 6,6-dimethyl-2-(2-((1-(methylsulfonyl)piperidin-4-yl)amino)-5-(trifluoro-methyl)pyrimidin-4-yl)-5,6-dihydro-4H-thieno[2,3-c] pyrrol-4-one], the IC50 on CDK4/Cyclin D1, at CDK2/Cyclin E2 and with OVCAR3 p-RB was not above 100 nM throughout.

For `CC1(C)NC(=O)c2cc(-c3nc(N[C@@H]4CCN(S(C)(=O)=O)C[C@H]4F)ncc3C(F)(F)F)sc21` [Example 13, 2-(2-(((3R,4R)-3-fluoro-1-(methylsulfonyl)piperidin-4-yl)amino)-5-(trifluoro-methyl)pyrimidin-4-yl)-6,6-dimethyl-5,6-dihydro-4H-thieno[2,3-c]pyrrol-4-one], the IC50 at CDK4/Cyclin D1, on CDK2/Cyclin E2 and in the assay with OVCAR3 p-RB was not above 100 nM in each case.

Turning to `CC1(C)NC(=O)c2cc(-c3nc(N[C@H]4CCN(S(C)(=O)=O)C[C@H]4F)ncc3C(F)(F)F)sc21` [Example 14, 2-(2-(((3R,4S)-3-fluoro-1-(methylsulfonyl)piperidin-4-yl)amino)-5-(trifluoro-methyl)pyrimidin-4-yl)-6,6-dimethyl-5,6-dihydro-4H-thieno[2,3-c]pyrrol-4-one], the IC50 on CDK4/Cyclin D1, on CDK2/Cyclin E2 and in the assay with OVCAR3 p-RB was not above 100 nM each time.

As for `Cn1cnc(S(=O)(=O)N2CC[C@H](Nc3ncc(C(F)(F)F)c(-c4cc5c(s4)C(C)(C)NC5=O)n3)[C@H](F)C2)c1` [Example 15, 2-(2-(((3R,4S)-3-fluoro-1-((1-methyl-1H-imidazol-4-yl)sulfonyl)piperidin-4-yl)amino)-5-(trifluoro-methyl)pyrimidin-4-yl)-6,6-dimethyl-5,6-dihydro-4H-thieno[2,3-c]pyrrol-4-one], the IC50 on CDK4/Cyclin D1, at CDK2/Cyclin E2 and in the assay with OVCAR3 p-RB was not above 100 nM each time.

`Cn1cc(S(=O)(=O)N2CC[C@@H](Nc3ncc(C(F)(F)F)c(-c4cc5c(s4)C(C)(C)NC5=O)n3)[C@H](F)C2)cn1` [Example 16, 2-(2-(((3R,4R)-3-fluoro-1-((1-methyl-1H-pyrazol-4-yl)sulfonyl)piperidin-4-yl)amino)-5-(trifluoro-methyl)pyrimidin-4-yl)-6,6-dimethyl-5,6-dihydro-4H-thieno[2,3-c]pyrrol-4-one]: the 50% inhibitory concentration (IC50) on CDK4/Cyclin D1, on CDK2/Cyclin E2 and in the assay with OVCAR3 p-RB was not above 100 nM in each case.

Take `CS(=O)(=O)N1CCC(Nc2ncc(C(F)(F)F)c(-c3cc4c(s3)CNC4=O)n2)CC1` [Example 17, 2-(2-((1-(methylsulfonyl)piperidin-4-yl)amino)-5-(trifluoromethyl)pyrimidin-4-yl)-5,6-dihydro-4H-thieno[2,3-c]pyrrol-4-one]: the half-inhibitory concentration (IC50) at CDK4/Cyclin D1, on CDK2/Cyclin E2 and in the assay on OVCAR3 p-RB was not above 100 nM throughout.

As to `Cn1cc(S(=O)(=O)N2CCC(Nc3ncc(C(F)(F)F)c(-c4cc5c(s4)CNC5=O)n3)CC2)cn1` [Example 20, 2-(2-((1-((1-methyl-1H-pyrazol-4-yl)sulfonyl)piperidin-4-yl)amino)-5-(trifluoromethyl)pyrimidin-4-yl)-5,6-dihydro-4H-thieno[2,3-c]pyrrol-4-one], the IC50 at CDK4/Cyclin D1, at CDK2/Cyclin E2 and with OVCAR3 p-RB was not above 100 nM each time.

Turning to `C[C@@H]1CN(S(=O)(=O)c2cnn(C)c2)CC[C@@H]1Nc1ncc(C(F)(F)F)c(-c2cc3c(s2)CNC3=O)n1` [Example 21, 2-(2-(((3R,4S)-3-methyl-1-((1-methyl-1H-pyrazol-4-yl)sulfonyl)piperidin-4-yl)amino)-5-(trifluoro-methyl)pyrimidin-4-yl)-5,6-dihydro-4H-thieno[2,3-c]pyrrol-4-one], the IC50 at CDK4/Cyclin D1, on CDK2/Cyclin E2 and in the assay on OVCAR3 p-RB was not above 100 nM in each case.

Regarding `Cn1cc(S(=O)(=O)N2CCC(Nc3ncc(C(F)(F)F)c(-c4cc5c(s4)C(=O)NC5)n3)CC2)cn1` [Example 23, 2-(2-((1-((1-Methyl-1H-pyrazol-4-yl)sulfonyl)piperidin-4-yl)amino)-5-(trifluoromethyl)pyrimidin-4-yl)-4,5-dihydro-6H-thieno[2,3-c]pyrrol-6-one], the IC50 on CDK4/Cyclin D1 was 100 to 500 nM; on CDK2/Cyclin E2, not above 100 nM; in the assay with OVCAR3 p-RB, 100 to 500 nM.

Turning to `CS(=O)(=O)N1CCC(Nc2ncc(C(F)(F)F)c(-c3cc4c(s3)C(=O)NC4)n2)CC1` [Example 24, 2-(2-((1-(Methylsulfonyl)piperidin-4-yl)amino)-5-(trifluoromethyl)pyrimidin-4-yl)-4,5-dihydro-6H-thieno[2,3-c]pyrrol-6-one], the IC50 at CDK4/Cyclin D1 is more than 500 nM; at CDK2/Cyclin E2, not above 100 nM; in the assay with OVCAR3 p-RB, more than 500 nM.
